In PMC10066365, “Nemacol is a small molecule inhibitor of C. elegans vesicular acetylcholine transporter with anthelmintic potential” (Nature Communications, 2023):
Where “and” joins values, the source holds several entries; their conditions need not be identical. Identical values can stand only once. Like-named read-outs stand apart in the source and are kept apart here.

Key:
[1] = test system: Dirofilaria immitis L3/L4; test: Dirofilaria immitis L3/L4 motility assay (DiroImager, 72 h); conditions: Dirofilaria immitis L4
C. elegans = test: Suppression of trichlorfon (AChE inhibitor) paralysis, double dose-response, scored after 80 min; assay type: in vivo, Caenorhabditis elegans; conditions: wild-type, bio rep 1-3
rat VAChT = target: T1, rat VAChT (Rattus norvegicus, UniProt Q62666); test: [3H]Vesamicol competitive radioligand binding, PC12 cells expressing ratVAChT; conditions: ratVAChT Ki, [3H]Vesamicol displacement, mean
T1 construct: expressed in transfected cells; host or cells: rat PC12 (PC12 A123.7) cells, stably transfected; shared by Dr. Ali Roghani (Texas Tech University)
T1 sequence (Q62666 1-530): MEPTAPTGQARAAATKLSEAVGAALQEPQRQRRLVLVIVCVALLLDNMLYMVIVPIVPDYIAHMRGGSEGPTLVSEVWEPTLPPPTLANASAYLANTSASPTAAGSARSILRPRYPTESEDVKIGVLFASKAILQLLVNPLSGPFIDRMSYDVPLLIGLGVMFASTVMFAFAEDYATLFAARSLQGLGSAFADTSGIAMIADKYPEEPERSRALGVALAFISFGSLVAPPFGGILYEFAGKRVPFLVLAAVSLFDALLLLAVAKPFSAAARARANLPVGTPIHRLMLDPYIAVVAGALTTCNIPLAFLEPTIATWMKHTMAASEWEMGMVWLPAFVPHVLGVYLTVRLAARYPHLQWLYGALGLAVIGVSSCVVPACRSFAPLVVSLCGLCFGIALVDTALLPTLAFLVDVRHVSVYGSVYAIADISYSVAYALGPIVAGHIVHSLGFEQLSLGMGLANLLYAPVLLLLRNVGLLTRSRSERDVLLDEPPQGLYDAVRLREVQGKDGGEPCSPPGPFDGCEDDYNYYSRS

[2] = test system: C. elegans unc-17 mutants; conditions: 60 min, average of 3 biological repeats
Protocol: Significance was calculated using Fisher’s method (one-sided comparisons; see 'Methods'). […] Worms were incubated on the plates for 60 min.
Locomotor phenotype analyses were done in 24-well plates with 1 mL of MYOB substrate (27.5 g Trizma HCl, 12 g Trizma Base, 230 g bacto tryptone, 10 g NaCl, 0.4 g cholesterol (95%)) seeded with 25 µL of OP50 Escherichia coli on each well. Each compound was added to the MYOB substrate before pouring to achieve the desired final concentrations of 30 µM or 60 µM after diffusion through the media. Synchronized young adult worms are transferred into each well using a platinum wire pick. A Leica MZ75 stereomicroscope was used to visualize the movement of worms on the solid substrate. The specific dominant locomotor phenotype (i.e. ‘Punc’, ‘paralyzed’, ‘coiler’ or ‘wild-type locomotion’) was scored after the touch on the head with a platinum wire over a ~3–5 s of observation. […] Coiled animals were not scored as paralyzed despite sometimes not responding to light touch.

[3] = unc-17 (e245), 15 µM, adult worms
[4] = unc-17 (e245), 30 µM, adult worms
[5] = unc-17 (e245), 60 µM, adult worms
[6] = unc-17 (e245), 120 µM, adult worms
[7] = unc-17 (e245), 240 µM, adult worms

## O=[N+]([O-])c1ccc(N2CCN(CC3CC=CCC3)CC2)cc1 (stereo not drawn) [Nemacol-4]
[1]; 2 µM
  % effect (motility), DIROIM L4: 5%
[1]; 10 µM
  % effect (motility), DIROIM L4: 100%
[1]; 50 µM
  % effect (motility), DIROIM L4: 100%

## O[C@@H]1CCCC[C@H]1N1CCC(c2ccccc2)CC1 (racemic) [vesamicol, reference compound]
C. elegans; vesamicol 31.75 uM + trichlorfon 0 uM
  % para (percentage of animals able to adopt a clear sinusoidal wave pattern upon touch on the nose): 96.4286% and 100%
C. elegans; vesamicol 31.75 uM + trichlorfon 25 uM
  % para (percentage of animals able to adopt a clear sinusoidal wave pattern upon touch on the nose): 92.8571% and 96.4286% and 100%
C. elegans; vesamicol 31.75 uM + trichlorfon 50 uM
  % para (percentage of animals able to adopt a clear sinusoidal wave pattern upon touch on the nose): 82.1429% and 71.4286% and 96.4286%
C. elegans; vesamicol 31.75 uM + trichlorfon 100 uM
  % para (percentage of animals able to adopt a clear sinusoidal wave pattern upon touch on the nose): 64.2857% and 53.5714% and 42.8571%
C. elegans; vesamicol 31.75 uM + trichlorfon 400 uM
  % para (percentage of animals able to adopt a clear sinusoidal wave pattern upon touch on the nose): 0%
C. elegans; vesamicol 31.75 uM + trichlorfon 800 uM
  % para (percentage of animals able to adopt a clear sinusoidal wave pattern upon touch on the nose): 0%
C. elegans; vesamicol 62.5 uM + trichlorfon 0 uM
  % para (percentage of animals able to adopt a clear sinusoidal wave pattern upon touch on the nose): 100%
C. elegans; vesamicol 62.5 uM + trichlorfon 25 uM
  % para (percentage of animals able to adopt a clear sinusoidal wave pattern upon touch on the nose): 92.8571% and 100%
C. elegans; vesamicol 62.5 uM + trichlorfon 50 uM
  % para (percentage of animals able to adopt a clear sinusoidal wave pattern upon touch on the nose): 89.2857% and 85.7143% and 96.4286%
C. elegans; vesamicol 62.5 uM + trichlorfon 100 uM
  % para (percentage of animals able to adopt a clear sinusoidal wave pattern upon touch on the nose): 67.8571% and 64.2857% and 53.5714%
C. elegans; vesamicol 62.5 uM + trichlorfon 400 uM
  % para (percentage of animals able to adopt a clear sinusoidal wave pattern upon touch on the nose): 0% and 3.571%
C. elegans; vesamicol 62.5 uM + trichlorfon 800 uM
  % para (percentage of animals able to adopt a clear sinusoidal wave pattern upon touch on the nose): 0%
C. elegans; vesamicol 125 uM + trichlorfon 0 uM
  % para (percentage of animals able to adopt a clear sinusoidal wave pattern upon touch on the nose): 100%
C. elegans; vesamicol 125 uM + trichlorfon 25 uM
  % para (percentage of animals able to adopt a clear sinusoidal wave pattern upon touch on the nose): 96.4286% and 100%
C. elegans; vesamicol 125 uM + trichlorfon 50 uM
  % para (percentage of animals able to adopt a clear sinusoidal wave pattern upon touch on the nose): 96.4286% and 78.5714% and 92.8571%
C. elegans; vesamicol 125 uM + trichlorfon 100 uM
  % para (percentage of animals able to adopt a clear sinusoidal wave pattern upon touch on the nose): 85.7143% and 67.8571% and 60.7143%
C. elegans; vesamicol 125 uM + trichlorfon 800 uM
  % para (percentage of animals able to adopt a clear sinusoidal wave pattern upon touch on the nose): 0%
C. elegans; vesamicol 250 uM + trichlorfon 0 uM
  % para (percentage of animals able to adopt a clear sinusoidal wave pattern upon touch on the nose): 96.4286% and 100%
C. elegans; vesamicol 250 uM + trichlorfon 25 uM
  % para (percentage of animals able to adopt a clear sinusoidal wave pattern upon touch on the nose): 100% and 96.4286%
C. elegans; vesamicol 250 uM + trichlorfon 50 uM
  % para (percentage of animals able to adopt a clear sinusoidal wave pattern upon touch on the nose): 96.4286% and 89.2857% and 100%
C. elegans; vesamicol 250 uM + trichlorfon 100 uM
  % para (percentage of animals able to adopt a clear sinusoidal wave pattern upon touch on the nose): 75% and 78.5714%
C. elegans; vesamicol 250 uM + trichlorfon 800 uM
  % para (percentage of animals able to adopt a clear sinusoidal wave pattern upon touch on the nose): 0%
C. elegans; vesamicol 500 uM + trichlorfon 0 uM
  % para (percentage of animals able to adopt a clear sinusoidal wave pattern upon touch on the nose): 100%
C. elegans; vesamicol 500 uM + trichlorfon 25 uM
  % para (percentage of animals able to adopt a clear sinusoidal wave pattern upon touch on the nose): 100% and 92.8571% and 96.4286%
C. elegans; vesamicol 500 uM + trichlorfon 50 uM
  % para (percentage of animals able to adopt a clear sinusoidal wave pattern upon touch on the nose): 89.2857% and 96.4286% and 78.5714%
C. elegans; vesamicol 500 uM + trichlorfon 100 uM
  % para (percentage of animals able to adopt a clear sinusoidal wave pattern upon touch on the nose): 82.1429% and 85.7143%
C. elegans; vesamicol 500 uM + trichlorfon 200 uM
  % para (percentage of animals able to adopt a clear sinusoidal wave pattern upon touch on the nose): 42.8571% and 50% and 71.4286%
C. elegans; vesamicol 500 uM + trichlorfon 800 uM
  % para (percentage of animals able to adopt a clear sinusoidal wave pattern upon touch on the nose): 0%
Rat VAChT
  Ki: 21 nM
[2]; [3]
  Fraction Coiled: 0.65
  Fraction Jerky-Unc: 0.35
  Fraction No Phenotype: 0.00
  Fraction Parayzed: 0.00
[2]; [4]
  Fraction Coiled: 0.74
  Fraction Jerky-Unc: 0.24
  Fraction No Phenotype: 0.00
  Fraction Parayzed: 0.0185
[2]; [5]
  Fraction Coiled: 0.70
  Fraction Jerky-Unc: 0.24
  Fraction No Phenotype: 0.00
  Fraction Parayzed: 0.0556
[2]; [6]
  Fraction Coiled: 0.74
  Fraction Jerky-Unc: 0.14
  Fraction No Phenotype: 0.00
  Fraction Parayzed: 0.12
[2]; [7]
  Fraction Coiled: 0.72
  Fraction Jerky-Unc: 0.15
  Fraction No Phenotype: 0.00
  Fraction Parayzed: 0.13
[2]; unc-17 (md414), 15 µM
  Fraction Coiled: 0.00
  Fraction Jerky-Unc: 0.037
  Fraction No Phenotype: 0.96
  Fraction Parayzed: 0.00
[2]; unc-17 (md414), 30 µM
  Fraction Coiled: 0.00
  Fraction Jerky-Unc: 0.0741
  Fraction No Phenotype: 0.93
  Fraction Parayzed: 0.00
[2]; unc-17 (md414), 60 µM
  Fraction Coiled: 0.00
  Fraction Jerky-Unc: 0.24
  Fraction No Phenotype: 0.76
  Fraction Parayzed: 0.00
[2]; unc-17 (md414), 120 µM
  Fraction Coiled: 0.00
  Fraction Jerky-Unc: 0.43
  Fraction No Phenotype: 0.57
  Fraction Parayzed: 0.00
[2]; unc-17 (md414), 240 µM
  Fraction Coiled: 0.037
  Fraction Jerky-Unc: 0.61
  Fraction No Phenotype: 0.35
  Fraction Parayzed: 0.00

## O=[N+]([O-])c1ccc(N2CCN(CC3CC4C=CC3C4)CC2)cc1 (stereo not drawn) [Nemacol-3]
[1]; 2 µM
  % effect (motility), DIROIM L4: 0%
[1]; 10 µM
  % effect (motility), DIROIM L4: 75%
[1]; 50 µM
  % effect (motility), DIROIM L4: 100%
